Data taken from patent publication EP0230023B1, “Pharmaceutical compositions for the enhancement of wound healing” (MARION MERRELL DOW INC., priority 1985, dated 1987).

System: fibroblasts
Test: Cell migration assay (Boyden chamber)
Type: cell-based
Set-up: Chemokinesis: scale not given here
Protocol: Stimulation of directed movement of fibroblasts was assayed as described by Banda M.J., Knighton D.R., Hunt T.K., Werb A., Isolation of a nonmitogenic angiogenesis factor from wound fluid, Proc. Natl. Acad. Sci. 79:7773-7777, 1982. Briefly, solutions of sucrose octasulfate in PBS in concentrations resulting in final concentrations ranging from 10 -² to 10 -⁷ g/ml diluted to a final volume of 300 µℓ in DMEM supplemented with 10 percent rabbit platelet-poor plasma serum were placed in the bottom of Boyden blind-well chambers. Polylysine-coated, 5 µ -pore diameter, polycarbonate filters (Nucleopore) were placed over the test solution and 1.75-3.0 x 10⁶ fibroblasts suspended in DMEM added to the top compartment. The chambers were incubated for two and a half hours at 37 °C,
At the end of incubation of the top filter was fixed, stained and evaluated by counting the number of cells that had migrated to the bottom side of the filter. For each experiment five random fields per filter and at least 15 filters per each concentration of sucrose octasulfate were conducted. […]

O=S(=O)([O-])OC[C@H]1O[C@@](COS(=O)(=O)[O-])(O[C@H]2O[C@H](COS(=O)(=O)[O-])[C@@H](OS(=O)(=O)[O-])[C@H](OS(=O)(=O)[O-])[C@H]2OS(=O)(=O)[O-])[C@@H](OS(=O)(=O)[O-])[C@@H]1OS(=O)(=O)[O-].[K+].[K+].[K+].[K+].[K+].[K+].[K+].[K+] [Sucrose Octasulfate, potassium sucrose octasulfate]
Chemokinesis (score, Boyden chamber, scale not defined, potassium salts): 4 | Migrated fibroblasts, fold increase over negative control (sucrose octasulfate 10⁻² g/ml, 2.5 hours at 37 °C): 0.4 fold increase over negative control | Migrated fibroblasts, fold increase over negative control (sucrose octasulfate 10⁻³ g/ml): 0.4 fold increase over negative control | Migrated fibroblasts, fold increase over negative control (sucrose octasulfate 10⁻⁴ g/ml): 0.6 fold increase over negative control | Migrated fibroblasts, fold increase over negative control (sucrose octasulfate 10⁻⁵ g/ml): 2.2 fold increase over negative control | Migrated fibroblasts, fold increase over negative control (sucrose octasulfate 10⁻⁶ g/ml): 2.1 fold increase over negative control | Migrated fibroblasts, fold increase over negative control (sucrose octasulfate 10⁻⁷ g/ml): 1.1 fold increase over negative control
